Consider six compounds from article PMC2993773 (Journal of natural products, 2010).

Data set [1] has as its system KB-VIN multidrug-resistant human cancer cell line. Briefly: In vitro cytotoxicity. It counts as cell-based.
Data set [2] has as its system P-388 murine leukemia cells. Particulars: in vitro; cited from earlier work.
Data set [3] deals with KB nasopharyngeal human cancer cell line. The data set can be described thus: In vitro cytotoxicity. It counts as cell-based. Particulars: KB cells (value in parentheses).

As to `COc1cc([C@@H]2c3cc4c(cc3[C@@H](O[C@@H]3O[C@@H]5CO[C@@H](C)O[C@H]5[C@H](O)[C@H]3O)[C@H]3COC(=O)[C@H]23)OCO4)cc(OC)c1O` [etoposide, reference compound], in data set [1] (KB-VIN versus KB), the “activity in KB-VIN relative to KB (cross-resistance)” value was “at least eight-fold less active”. For `C=C(CC[C@@H](C)[C@H]1CC[C@H]2C3=C(C(=O)C[C@]12C)[C@@]1(C)CCC(=O)[C@@H](C)[C@@H]1C[C@@H]3O)C(C)C(=O)OC` (stereo partly drawn) [Compound 6, methyl 7β-hydroxy-3,11-dioxo-4α-methylergosta-8,24(28)-dien-26-oate], the “substrate of P-glycoprotein (P-gp)” value in data set [1] (inferred from lack of cross-resistance shown by KB-VIN) is “not substrates of P-glycoprotein”. In the case of `C=C(CC[C@@H](C)[C@H]1CC[C@@]2(O)C3=C(C(=O)C[C@]12C)[C@@]1(C)CCC(=O)[C@@H](C)C1C[C@@H]3O)C(C)C(=O)O` (stereo partly drawn) [Compound 4, 7β,14α-dihydroxy-3,11-dioxo-4α-methylergosta-8,24(28)-dien-26-oic acid], the “substrate of P-glycoprotein (P-gp)” value in data set [1] (not told) is on record as “not substrates of P-glycoprotein”.

In the case of `C=C(CC[C@@H](C)[C@H]1CC[C@H]2C3=C(C(=O)[C@H](O)[C@]12C)[C@@]1(C)CC[C@@H](O)[C@@H](C)[C@@H]1CC3=O)C(C)C(=O)O` (stereo partly shown) [Compound 13, zhankuic acid C], in data set [2], the “cytotoxicity against P-388 murine leukemia cells” value is listed as “significant cytotoxicity”.

Consider eburicol [Compound 19], for which the % inhibition (in general, the share of the control response that was lost under treatment) at 20 μM, KB-VIN in data set [1] (20 μM, KB-VIN cells (value in parentheses)) turned out to be 18%. For the same compound, the “% inhibition at 20 μM, KB” value in data set [3] worked out at 34%. With `C=C(CC[C@@H](C)[C@H]1CC[C@H]2C3=C(C(=O)C[C@]12C)[C@@]1(C)CCC(=O)[C@@H](C)[C@@H]1CC3=O)C(C)C(=O)O` (stereo partly shown) [Compound 11, zhankuic acid A], the “cytotoxicity against P-388 murine leukemia cells” value in data set [2] is listed as “significant cytotoxicity”.
